A short description of the data set: logP determination by retention times (calibration with alkan-2-ones).
The mark [1] stands for this setting: logP, values marked *: HPLC on reversed-phase C 18, 40° C., mobile phase 0.1% aqueous formic acid and acetonitrile, linear gradient 10% to 95% acetonitrile.

One may read the chromatographic logP as a lipophilicity value derived from retention on a column. `COCCCNc1nc(C)c(-c2ccnc(Nc3cccc([N+](=O)[O-])c3)n2)s1` [Example 865, 4-{2-[(3-methoxypropyl)amino]-4-methyl-1,3-thiazol-5-yl}-N-(3-nitrophenyl)pyrimidine-2-amine]: the chromatographic logP under setting [1] worked out at 2.03.

Under setting [1], `COCCCNc1nc(C)c(-c2ccnc(Nc3cc(OC)c(OC)c(OC)c3)n2)s1` [Example 866, 4-{2-[(3-methoxypropyl)amino]-4-methyl-1,3-thiazol-5-yl}-N-(3,4,5-trimethoxyphenyl)pyrimidine-2-amine] came in with a chromatographic logP of 1.73.

Turning to `CC(=O)c1ccc(Nc2nccc(-c3sc(N(C)C)nc3C)n2)cc1` [Example 867, 1-[4-({4-[2-(dimethylamine)-4-methyl-1,3-thiazol-5-yl]pyrimidin-2-yl}amino)phenyl]ethanone], where the note is “values marked *: HPLC on reversed-phase C 18, 40° C., mobile phase 0.1% aqueous formic acid and acetonitrile, linear gradient 10% to 95% acetonitrile”, the logP is given as 1.9*.

As to `COCCNc1nc(C)c(-c2ccnc(Nc3ccc(Cl)nc3)n2)s1` [Example 872, N-(6-chloropyridin-3-yl)-4-{2-[(2-methoxyethyl)amino]-4-methyl-1,3-thiazol-5-yl}pyrimidine-2-amine], the chromatographic logP under setting [1] was determined as 1.71.

The molecule `Cc1nc(C)c(-c2nc(Nc3ccccc3)ncc2Cl)s1` [Example 873, 5-chloro-4-(2,4-dimethyl-1,3-thiazol-5-yl)-N-phenylpyrimidine-2-amine] registered a chromatographic logP under setting [1] of 3.26.

Regarding `COc1cc(Nc2ncc(Cl)c(-c3sc(C)nc3C)n2)cc(OC)c1OC` [Example 874, 5-Chloro-4-(2,4-dimethyl-1,3-thiazol-5-yl)-N-(3,4,5-trimethoxyphenyl)-pyrimidine-2-amine], the chromatographic logP came out at 2.82 (logP(HCOOH), HCOOH) and 2.82 under setting [1].

Under setting [1], `Cc1nc(C)c(-c2nc(Nc3cccc(Cl)c3)ncc2Cl)s1` [Example 875, 5-chloro-N-(3-chlorophenyl)-4-(2,4-dimethyl-1,3-thiazol-5-yl)pyrimidine-2-amine] returned a chromatographic logP of 3.86.

In turn, `CCc1nc(C)c(-c2nc(Nc3ccccc3)ncc2Cl)s1` [Example 876, 5-chloro-4-(2-ethyl-4-methyl-1,3-thiazol-5-yl)-N-phenylpyrimidine-2-amine] had a chromatographic logP under setting [1] of 3.78.

Under setting [1], `CCc1nc(C)c(-c2nc(Nc3ccc(Cl)cc3)ncc2Cl)s1` [Example 877, 5-chloro-N-(4-chlorophenyl)-4-(2-ethyl-4-methyl-1,3-thiazol-5-yl)pyrimidine-2-amine] registered a chromatographic logP of 4.48.

As for `CCc1nc(C)c(-c2nc(Nc3ccccc3Cl)ncc2Cl)s1` [Example 878, 5-chloro-N-(2-chlorophenyl)-4-(2-ethyl-4-methyl-1,3-thiazol-5-yl)pyrimidine-2-amine], the chromatographic logP under setting [1] was 4.62.

Take `CCc1nc(C)c(-c2ccnc(Nc3ccc(N(C)C)cc3)n2)s1` [Example 879, N′-[4-(2-ethyl-4-methyl-1,3-thiazol-5-yl)pyrimidin-2-yl]-N,N-dimethylbenzene-1,4-diamine]: the chromatographic logP under setting [1] stood at 1.56.

`CCc1nc(C)c(-c2ccnc(Nc3cccc(N(C)C)c3)n2)s1` [Example 880, N′-[4-(2-ethyl-4-methyl-1,3-thiazol-5-yl)pyrimidin-2-yl]-N,N-dimethylbenzene-1,3-diamine] showed a chromatographic logP under setting [1] of 1.99.

With `CCc1nc(C)c(-c2ccnc(Nc3ccc(C(=O)OCCOC)cc3)n2)s1` [Example 881, 2-methoxyethyl-4-{[4-(2-ethyl-4-methyl-1,3-thiazol-5-yl)pyrimidin-2-yl]amino}benzoate], under setting [1], the chromatographic logP is 2.91.

Under setting [1], `Cc1nc(C(C)(C)C)sc1-c1ccnc(Nc2ccccc2)n1` [Example 882, 4-(2-tert-butyl-4-methyl-1,3-thiazol-5-yl)-N-phenylpyrimidine-2-amine] gave a chromatographic logP of 4.24.

Turning to `Cc1nc(C(C)(C)C)sc1-c1ccnc(Nc2ccc(F)cc2)n1` [Example 883, 4-(2-tert-butyl-4-methyl-1,3-thiazol-5-yl)-N-(4-fluorophenyl)pyrimidine-2-amine], under setting [1], the chromatographic logP worked out at 4.18.

As for `Cc1nc(C(C)(C)C)sc1-c1ccnc(Nc2cccc(Cl)c2)n1` [Example 884, 4-(2-tert-butyl-4-methyl-1,3-thiazol-5-yl)-N-(3-chlorophenyl)pyrimidine-2-amine], the chromatographic logP under setting [1] was 4.82.

Consider `CC(=O)c1ccc(Nc2nccc(-c3sc(C(C)(C)C)nc3C)n2)cc1` [Example 885, 1-(4-{[4-(2-tert-butyl-4-methyl-1,3-thiazol-5-yl)pyrimidin-2-yl]amino}phenyl)ethanone], for which, under setting [1], the chromatographic logP was determined as 4.22.

In turn, `COc1ccc(Nc2nccc(-c3sc(C(C)(C)C)nc3C)n2)cn1` [Example 886, 4-(2-tert-butyl-4-methyl-1,3-thiazol-5-yl)-N-(6-methoxypyridin-3-yl)pyrimidine-2-amine] returned a chromatographic logP under setting [1] of 3.42.

Under setting [1], `CC(=O)c1cccc(Nc2nccc(-c3sc(C(C)(C)C)nc3C)n2)c1` [Example 887, 1-(3-{[4-(2-tert-butyl-4-methyl-1,3-thiazol-5-yl)pyrimidin-2-yl]amino}phenyl)ethanone] gave a chromatographic logP of 3.66.

`COc1cc(Nc2nccc(-c3sc(C(C)(C)C)nc3C)n2)cc(OC)c1OC` [Example 888, 4-(2-tert-butyl-4-methyl-1,3-thiazol-5-yl)-N-(3,4,5-trimethoxyphenyl)pyrimidine-2-amine] came in with a chromatographic logP under setting [1] of 3.48.

Under setting [1], `COCC(C)Nc1nc(C)c(-c2ccnc(Nc3ccc4c(c3)C(=O)OC4)n2)s1` (stereo not drawn) [Example 889, 6-[(4-{2-[(2-methoxy-1-methylethyl)amino]-4-methyl-1,3-thiazol-5-yl}pyrimidin-2-yl)amino]-2-benzofuran-1(3H)-one] came in with a chromatographic logP of 1.65.

`COCCNc1nc(C)c(-c2ccnc(Nc3ccc4c(c3)C(=O)OC4)n2)s1` [Example 890, 6-[(4-{2-[(2-methoxyethyl)amino]4-methyl-1,3-thiazol-5-yl}pyrimidin-2-yl)amino]-2-benzofuran-1(3H)-one] registered a chromatographic logP under setting [1] of 1.53.

`Cc1nc(NCCO)sc1-c1ccnc(Nc2ccc(F)cc2)n1` [Example 891, 2-[(5-{2-[(4-fluorophenyl)amino]pyrimidin-4-yl}-4-methyl-1,3-thiazol-2-yl)amino]ethanol] yielded a chromatographic logP under setting [1] of 1.5.

`COCCNc1nc(C)c(-c2ccnc(Nc3ccc(C)c(C)c3)n2)s1` [Example 896, N-(3,4-dimethylphenyl)-4-{2-[(2-methoxyethyl)amino]-4-methyl-1,3-thiazol-5-yl}pyrimidine-2-amine] yielded a chromatographic logP under setting [1] of 2.08.

Turning to `COCCNc1nc(C)c(-c2ccnc(Nc3ccc(F)c(F)c3)n2)s1` [Example 897, N-(3,4-difluorophenyl)-4-{2-[(2-methoxyethyl)amino]-4-methyl-1,3-thiazol-5-yl}pyrimidine-2-amine], the chromatographic logP under setting [1] was 2.15.

`COCCNc1nc(C)c(-c2ccnc(Nc3ccc(Cl)cc3)n2)s1` [Example 898, N-(4-chlorophenyl)-4-{2-[(2-methoxyethyl)amino]-4-methyl-1,3-thiazol-5-yl}pyrimidine-2-amine] came in with a chromatographic logP under setting [1] of 2.24.

For `COCCOc1nc(C)c(-c2ccnc(Nc3ccc(F)cc3)n2)s1` [Example 899, N-(4-fluorophenyl)-4-[2-(2-methoxyethoxy)-4-methyl-1,3-thiazol-5-yl]pyrimidine-2-amine], under setting [1], the chromatographic logP is 3.12.

Turning to `COCCOc1nc(C)c(-c2ccnc(Nc3ccccc3)n2)s1` [Example 901, 4-[2-(2-methoxyethoxy)-4-methyl-1,3-thiazol-5-yl]-N-phenylpyrimidine-2-amine], under setting [1], the chromatographic logP is 3.01.

For `CCc1nc(C)c(-c2nc(Nc3ccccc3)ncc2Br)s1` [Example 902, 5-bromo-4-(2-ethyl-4-methyl-1,3-thiazol-5-yl)-N-phenylpyrimidine-2-amine], the chromatographic logP under setting [1] came out at 3.82.

Under setting [1], `Cc1nc(C(C)C)sc1-c1nc(Nc2ccccc2)ncc1Cl` [Example 903, 5-chloro-4-(2-isopropyl-4-methyl-1,3-thiazol-5-yl)-N-phenylpyrimidine-2-amine] yielded a chromatographic logP of 4.27.

Regarding `Cc1nc(C(C)C)sc1-c1nc(Nc2ccccc2)ncc1Br` [Example 904, 5-bromo-4-(2-isopropyl-4-methyl-1,3-thiazol-5-yl)-N-phenylpyrimidine-2-amine], the chromatographic logP under setting [1] turned out to be 4.32.

Under setting [1], `CCc1nc(C)c(-c2nc(Nc3cc(OC)c(OC)c(OC)c3)ncc2Br)s1` [Example 905, 5-bromo-4-(2-ethyl-4-methyl-1,3-thiazol-5-yl)-N-(3,4,5-trimethoxyphenyl)pyrimidine-2-amine] showed a chromatographic logP of 3.29.

Consider `COc1cc(Nc2ncc(Br)c(-c3sc(C)nc3C)n2)cc(OC)c1OC` [Example 906, 5-bromo-4-(2,4-dimethyl-1,3-thiazol-5-yl)-N-(3,4,5-trimethoxyphenyl)pyrimidine-2-amine], for which, under setting [1], the chromatographic logP was 2.85.

As to `CCc1nc(C)c(-c2nc(Nc3cc(OC)c(OC)c(OC)c3)ncc2Cl)s1` [Example 907, 5-chloro-4-(2-ethyl-4-methyl-1,3-thiazol-5-yl)-N-(3,4,5-trimethoxyphenyl)pyrimidine-2-amine], under setting [1], the chromatographic logP stood at 3.2.

`COc1cc(Nc2ncc(Br)c(-c3sc(C(C)C)nc3C)n2)cc(OC)c1OC` [Example 908, 5-bromo-4-(2-isopropyl-4-methyl-1,3-thiazol-5-yl)-N-(3,4,5-trimethoxyphenyl)pyrimidine-2-amine]: under setting [1], the chromatographic logP came to 3.65.

Molecule `Cc1nc(C)c(-c2nc(Nc3ccccc3)ncc2Br)s1` [Example 909, 5-bromo-4-(2,4-dimethyl-1,3-thiazol-5-yl)-N-phenylpyrimidine-2-amine] registered a chromatographic logP under setting [1] of 3.3.

Consider `COCCOc1nc(C)c(-c2ccnc(Nc3cc(OC)c(OC)c(OC)c3)n2)s1` [Example 910, 4-[2-(2-methoxyethoxy)-4-methyl-1,3-thiazol-5-yl]-N-(3,4,5-trimethoxyphenyl)pyrimidine-2-amine], for which the chromatographic logP under setting [1] was 2.53.

The molecule `COCCOc1nc(C)c(-c2ccnc(Nc3cccc([N+](=O)[O-])c3)n2)s1` [Example 911, 4-[2-(2-methoxyethoxy)-4-methyl-1,3-thiazol-5-yl]-N-(3-nitrophenyl)pyrimidine-2-amine] showed a chromatographic logP under setting [1] of 3.08.

(Values after patent publication US20090030024A1, “THIAZOLES AS FUNGICIDES” (priority 2005, published 2009).)
